# Reference: patent US20190111103A1, “NOVEL PEPTIDE OR SALT THEREOF, COMPOSITION FOR ENHANCING PROLIFERATION OF FIBROBLAST CELLS AND COMPOSITION FOR ENHANCING ELASTIN PRODUCTION IN FIBROBLAST CELLS AND CHONDROCYTES CONTAINING THE SAME” (Hayashikane Sangyo Co., Ltd., priority 2017, published 2019)
# Legend:
# [1] = test system: normal human knee joint chondrocytes (NHAc-kn); test: Elastin production test in normal human knee joint chondrocytes (dot blot); assay type: cell-based
# Procedure: Normal human knee joint chondrocytes (NHAc-kn: 1.0×10^5 cells/mL) were seeded in a 24-well plate (900 μL/well, medium: CBM+0.5% FBS) and incubated under humidification condition at 37° C. in 5% CO2 atmosphere for 48 hours. The medium was exchanged and peptide VPGG and peptide VP was added (100 μL/well, final concentration: 0 to 5000 nM) and incubated under humidification condition at 37° C. in 5% CO2 atmosphere for 48 hours. From the cell culture thus obtained, supernatant was collected and dot-blotted onto a PVDF membrane. After blocking with PBST containing 5% skim milk, the membrane was washed with PBST. The membrane was reacted with rabbit anti-elastin antibody as a primary antibody, washed with PBST and reacted with HRP conjugate goat […] as a secondary antibody and washed with PBST. The membrane was reacted with a detection reagent ImmunoStar (FUJIFILM Wako Pure Chemical Corporation) and the amount of elastin production was estimated based on intensities of signals obtained.
# [2] = test system: human skin fibroblast cells; settings: known from the literature (positive control); cited from earlier work
# [3] = test system: normal human skin fibroblast cells; test: Proliferation test of normal human skin fibroblast cells; assay type: cell-based; settings: similar experiment with the hydrolysate
# Procedure: Skin fibroblast cells cultured in a culture flask was seeded in a 96-well plate at 3,500 cells/cm^2 ([…], medium: 10% FBS DMEM). After incubating for 24 hours at 37° C. under 5% CO2 condition, the liquid medium in the wells was removed, replaced with DMEM containing 0.5% FBS and incubated for 24 hours under similar conditions. The liquid medium in the wells was removed and the wells were washed with DPBS, after which DPBS was removed. Solutions of predetermined concentrations of peptide Val-Pro-Gly-Gly (VPGG) and peptide Val-Pro-Gly-Ala (VPGA) were prepared using DMEM containing 0.5% FBS were prepared and 100 μL of the solution was added to each well. Fibroblast cells were incubated for 4 days at 37° C. under 5% CO2 condition and supernatant was recovered. The supernatant recovered was used for a measurement of amount of elastin production in Example 2. DMEM containing 0.5% FBS was added and cells were counted using cell counting kit-8 (10 μL/well) and a cell proliferation rate relative to the cell number obtained from the sample without adding the peptides.
# [4] = test system: human skin fibroblast cells; test: Migration activity test of normal human skin fibroblast cells; assay type: cell-based; settings: 20 hours, membrane inserts pore size 8 μm, absorbance at 560 nm
# Procedure: Effect of peptide Val-Pro-Gly-Gly on a migration activity of fibroblast cells that relates to processes of recovery and regeneration of tissue and wound healing was investigated. To bottom of each well of 24-well plate of CytoSelect (registered trade mark) 24-well Cell Migration Assay Kit (Cell Biotics), DMEM medium (control), 500 μL of peptide Val-Pro-Gly-Gly or peptide Val-Pro-Gly (positive control: see “Elastin—Structure, Function and Pathology”, edited and written by Hiroyuki Ito, Elastin Study Group of Japan (not for sale), p. 124-137, 2008) dissolved in DMEM medium were added. Then, 300 μL of cell suspension of human skin fibroblast cells (P4 to 5) prepared by dispersing the cell in DMEM media (1×10^6 cells/mL) was added inside membrane inserts (pore size: 8 μm). The inserts were inserted in wells and incubated in a cell incubator at 37° C. for 20 hours (in preliminary examination, duration of incubation was also set to 6 hours). […] Cells were stained by adding 400 μL of cell stain liquid and staining for 10 minutes at room temperature. Then the inserts were washed with distilled water, dried and stain was confirmed by optical microscopic observation. […] of reaction mixture was placed in 96-well plate and absorbance at 560 nm was measured using a plate reader.
substance,measurement,setting,value
Val-Pro,effect on the elastin production in the chondrocytes,[1],promoting effect
Val-Pro-Gly,effect for promoting cell migration,[2],known to have the effect for promoting cell migration
Val-Pro-Gly-Ala (VPGA; printed: Val-Pro-Gly-Ala),cell proliferation rate compared with hydrolysate of elastin from bonitos bulbus arteriosus,[3],higher cell proliferation rate
Val-Pro-Gly-Gly (VPGG; printed: Val-Pro-Gly-Gly),effect for promoting cell migration compared with peptide Val-Pro-Gly (positive control),[4],significantly higher effect for promoting cell migration
same,cell proliferation rate compared with hydrolysate of elastin from bonitos bulbus arteriosus,[3],higher cell proliferation rate
